Measured values published in patent US20080139551A1, “TUMOR NECROSIS FACTOR ALPHA INHIBITORS AND THEIR USE IN THE TREATMENT OF HUMAN DISEASES” (AVANIR PHARMACEUTICALS, priority 2006, published 2008).

Key:
TNF-alpha = TNF-alpha production in LPS-challenged mice, assayed by ELISA; format: in vivo; conditions: Mus musculus, inhibition of TNF-alpha production, formulated in FS-1, oral gavage; for inhibition at 10 mg/kg: 10 mpk P.O.
Excerpt: Mice were challenged with LPS to produce TNF-alpha in vivo, and then assayed by ELISA after dosing with or without the TNF-alpha inhibitor (formulated in FS-1 and delivered through oral gavage).

[1] = In vitro incubation with liver microsomes of mouse, metabolite characterisation by HPLC/MS; format: in vitro ADME
Procedure: (§1) Stock solutions of NVP-VAQ996-NX-1 (2 mmol/L) were prepared in DMSO. Alamethicin solution was prepared (0.125 mmol/L) in water. Uridine 5′-diphosphoglucuronic acid (UDPGA) solution (24 mmol/L) was prepared in phosphate buffer 100 mM pH 7.4. In a further experiment 50 mmol/L gluthationic acid reduced (GSH) in phosphate buffer 100 mM pH 7.4 was added as second co-factor.
(§2) For the characterization of in vitro metabolites NVP-VAQ996-NX-1 was incubated at 37° C. for up to 60 minutes with liver microsomes from mouse and human (Table 3).
(§3) 3 μL liver microsomes, containing 20 mg protein/mL, were mixed with 417 μL phosphate buffer, 60 μL alamethicin solution and 60 μL UDPGA. To this reaction mixture 3 μL stock solution (2 mM in DMSO) of NVP-VAQ996-NX-1 was added and pre-incubated for 3 min at 37° C. After pre-incubation, the final reaction was started by addition of 60 μL of the nicotinamide-adenine-dinucleotide-phosphate (NADPH)-regenerating system, containing isocitrate-dehydrogenase (TU/mL), NADP (1 mmol/L), isocitrate (5 mmol/L). After 1 h, the reaction was stopped with 600 μL ice-cold acetonitrile. Experiments were conducted according to a generic protocol. The reaction mixture was stored at −80° C. The final set-up of the in vitro incubation is shown on Table 4.
(§4) Prior to use, the mixture was centrifuged (10000 g, 5 min) and 500 μL of 1 mL supernatant evaporated to dryness. […]

[2] = In vitro incubation with liver microsomes of human, metabolite characterisation by HPLC/MS; format: in vitro ADME
Procedure: as §1, §2, §3, §4

[3] = In vitro incubation in plasma from mice; format: in vitro ADME, Balb/c mice; conditions: heparinized mouse plasma, 5 μg/ml, 2 or 24 hrs at 37° C.
Procedure: Heparinized mouse plasma was freshly obtained from Balb/c mice. Samples were incubated with 5 μg/ml NVP-VAQ996 added from a stock solution (1 mg/ml) in DMSO for 2 or 24 hrs at 37° C.
(§5) For protein precipitation, to 100 μL plasma 100 μL ice-cold acetonitrile was added. This procedure was repeated twice during 1 hour and, after centrifugation (10000 g, 5 min), the supernatant was used for further preparation.
(§6) The solvent of the supernatant was evaporated using the Cyclone high speed evaporator (Prolab, Reinach, Switzerland) and the residue reconstituted with water/acetonitrile (95/5; v/v). An aliquot of the final solution was used for the high performance liquid chromatography/mass spectrometry (HPLC/MS) analyses.
The liquid chromatographic separation was performed using an Chorus-220 syringe pump (CS analytics, Beckenried, Switzerland) and a home-made glass capillary column, 150 mm×0.3 mm, filled with Nucleosil C18-HD, particle size 3.5 μm Gradient mobile phase programming was used with a flow rate of 4.5 μL/min. Eluent A was acetonitrile/water (5/95) 10 mM HCOONH4+0.02% trifluoroacetic acid (TFA). Eluent B was acetonitrile/methanol/water (9/5/5)+10 mM HCOONH4+0.02% TFA. The mobile phase was held 2 min. isocratic at 5% B, followed by a linear gradient from 15% B to 95% B over 30 min and a 5 min isocratic phase at 95% B. The column temperature was kept at 40° C. […]

[4] = Metabolite identification in plasma after p.o. administration to mice; set-up: species or system Balb/c mice; conditions: in vivo in plasma after p.o. administration of 10 mg/kg to mice
Procedure: Female Balb/c mice (Charles River) were housed under standard conditions with free access to food and drinking water throughout the experiment. The mice (n=4) were treated perorally with 10 mg/kg NVP-VAQ996-NX-1 (at 5 mL/kg) by gavage. At the allotted time points mice blood samples were obtained into heparinized tubes (30 IU/mL). The liver was removed intact, weighed and snap frozen before storage at −70° C. until analyzed.
as §5, §6
The liquid chromatographic separation was performed using an Chorus-220 syringe pump (CS analytics, Beckenried, Switzerland) and a home-made glass capillary column, 150 mm×0.3 mm, filled with Nucleosil C18-HD, particle size 3.5 μm Gradient mobile phase programming was used with a flow rate of 4.5 μL/min. Eluent A was acetonitrile/water (5/95) 10 mM HCOONH4+0.02% trifluoroacetic acid (TFA). […]

## CCOC(=O)c1c(N2CCNCC2)c2ccccc2n(Cc2ccc(F)cc2)c1=O [Compound 101]
TNF-alpha
  inhibition at 10 mg/kg: 43.4%

## N#Cc1c(N2CCNCC2)c2ccccc2n(CC(=O)c2ccccc2)c1=O [Compound 102]
TNF-alpha
  inhibition at 10 mg/kg: 36.5%

## Cc1ccc2c(c1)c(N1CCNCC1)c(C#N)c(=O)n2CC(=O)c1ccccc1 [Compound 103]
TNF-alpha
  inhibition at 10 mg/kg: 67.3%

## Cc1ccc2c(c1)c(N1CCNCC1)c(C#N)c(=O)n2C [Compound 105]
TNF-alpha
  inhibition at 10 mg/kg: 21%

## Cn1c(=O)c([N+](=O)[O-])c(N2CCNCC2)c2ccccc21 [Compound 108]
TNF-alpha
  inhibition at 10 mg/kg: 26.2%

## CCOC(=O)c1c(N2CCNCC2)c2sccc2n(Cc2cccc(F)c2)c1=O [Compound 113]
TNF-alpha; 3 mg/kg P.O., read-out: % Inhibition (tested at 3 mg/kg)
  inhibition at 3 mg/kg: 84.1%

## Cc1ccc2c(c1)c(N1CCN(C)CC1)c(C#N)c(=O)n2CC(=O)c1ccccc1 [Compound 114]
TNF-alpha
  inhibition at 10 mg/kg: 51.6%

## CC(=O)N1CCN(c2c(C#N)c(=O)n(CC(=O)c3ccccc3)c3ccc(C)cc23)CC1 [Compound 115]
TNF-alpha
  inhibition at 10 mg/kg: 41.3%

## CN1CCN(c2c(C#N)c(=O)n(CC(=O)c3ccccc3)c3ccccc23)CC1 [Compound 116]
TNF-alpha
  inhibition at 10 mg/kg: 29.4%

## N#Cc1c(N2CCN(C(=O)c3cccs3)CC2)c2ccccc2n(CC(=O)c2ccccc2)c1=O [NVP-VAQ996-NX]
[1]; after in vitro incubation with liver microsomes of mouse
  main metabolite: NVP-VAR235-NX
[1]; mouse liver microsomes 0.1 mg/ml, 5 μM, 37° C., up to 60 min
  metabolic degradation with liver microsomes: high
[2]; after in vitro incubation with liver microsomes of human
  main metabolite: NVP-VAR235-NX
[2]; human liver microsomes 0.1 mg/ml, 5 μM, 37° C., up to 60 min
  metabolic degradation with liver microsomes: high
[3]
  rate of degradation to metabolite ml in plasma: high
[4]
  main metabolite: NVP-VAR235-NX
